# According to ChEMBL document CHEMBL5260828, “Amphiphilic glycoconjugates as potential anti-cancer chemotherapeutics” (Eur J Med Chem, 2018):
# pIC50: −log10 of the molar value.
# What was measured:
# HeLa [1] = assay: Antiproliferative activity against human HeLa cells assessed as inhibition of cell growth incubated for 24 hrs by MTT assay; type: functional, cell-based
# Jurkat [2] = assay: Inhibition of cell growth in human Jurkat cells at 25 ug/ml; type: functional
# IGROV-1 [3] = assay: Antiproliferative activity against human IGROV-1 cells assessed as inhibition of cell growth incubated for 72 hrs by Coulter counter assay; type: functional, cell-based; details: IGROV-1, 72 h
# [4] = biological target: RAC-alpha serine/threonine-protein kinase (Homo sapiens, UniProt P31749); assay: Inhibition of AKT1 (unknown origin) in presence of ATP by ELISA
# RAC-alpha serine/threonine-protein kinase, sequence (P31749 whole entry): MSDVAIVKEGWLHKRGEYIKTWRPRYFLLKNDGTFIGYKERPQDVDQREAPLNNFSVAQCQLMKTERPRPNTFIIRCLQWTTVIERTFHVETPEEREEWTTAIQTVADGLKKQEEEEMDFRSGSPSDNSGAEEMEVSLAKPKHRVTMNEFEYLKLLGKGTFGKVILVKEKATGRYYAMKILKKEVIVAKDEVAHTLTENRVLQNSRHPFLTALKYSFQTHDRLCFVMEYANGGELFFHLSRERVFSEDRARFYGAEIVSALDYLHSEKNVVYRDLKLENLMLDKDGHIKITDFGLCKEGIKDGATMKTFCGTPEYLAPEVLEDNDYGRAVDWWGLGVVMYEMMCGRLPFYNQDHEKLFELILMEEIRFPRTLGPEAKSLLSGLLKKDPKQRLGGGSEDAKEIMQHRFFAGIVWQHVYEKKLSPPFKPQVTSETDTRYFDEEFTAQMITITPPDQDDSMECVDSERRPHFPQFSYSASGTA
# IGROV-1 [5] = assay: Antiproliferative activity against human IGROV-1 cells assessed as inhibition of cell growth incubated for 72 hrs in serum-free medium by Coulter counter assay; type: functional, cell-based; details: IGROV-1, 72 h
# HEp-2 = assay: Cytotoxicity against human HEp-2 cells assessed as cell growth inhibition by measuring effective dose; type: functional; details: read-out: ED50 (the source's name)
# HeLa [6] = assay: Cytotoxicity against human HeLa cells assessed as cell growth inhibition incubated for 48 hrs by MTT assay; type: functional, cell-based
# B16 = assay: Cytotoxicity against mouse B16 cells assessed as cell growth inhibition incubated for 48 hrs by MTT assay; type: functional, cell-based; details: B16, 48 h
# SMMC-7721 = assay: Cytotoxicity against human SMMC-7721 cells assessed as cell growth inhibition incubated for 48 hrs by MTT assay; type: functional, cell-based; details: SMMC-7721, 48 h
# MDA-MB-231 [7] = assay: Cytotoxicity against human MDA-MB-231 cells assessed as cell growth inhibition by alamar blue assay; type: functional, cell-based
# HeLa [8] = assay: Cytotoxicity against human HeLa cells assessed as cell growth inhibition by alamar blue assay; type: functional, cell-based
# MCF7 = assay: Cytotoxicity against human MCF7 cells assessed as cell growth inhibition by MTT assay; type: functional, cell-based
# MCF-10A = assay: Cytotoxicity against human MCF-10A cells assessed as cell growth inhibition by alamar blue assay; type: functional, cell-based
# Jurkat [9] = assay: Cytotoxicity against human Jurkat cells assessed as cell growth inhibition by alamar blue assay; type: functional, cell-based
# U-937 = assay: Cytotoxicity against human U-937 cells assessed as cell growth inhibition by alamar blue assay; type: functional, cell-based
# [10] = Cytotoxicity against human HEK293F cells; type: toxicity, cell-based
# MKN-45 = assay: Cytotoxicity against human MKN-45 cells; type: functional, cell-based
# ACHN [11] = assay: Cytotoxicity against human ACHN cells; type: functional, cell-based
# HCT-116 = assay: Cytotoxicity against human HCT-116 cells assessed as cell growth inhibition incubated for 72 hrs by celltiter 96 aqueous cell proliferation assay; type: functional, cell-based; details: HCT-116, 72 h
# Lung NSCLC-N6 cell-line = assay: Cytotoxicity against human Lung NSCLC-N6 cell-line by MTT colorimetric assay; type: functional, cell-based
# K562 = assay: Cytotoxicity against human K562 cells assessed as cell growth inhibition incubated for 24 hrs by MTT assay; type: functional, cell-based; details: K562, 24 h
# MDA-MB-231 [12] = assay: Cytotoxicity against human MDA-MB-231 cells assessed as cell growth inhibition incubated for 24 hrs by MTT assay; type: functional, cell-based; details: MDA-MB-231, 24 h
# Col2 = assay: Cytotoxicity against human Col2 cells assessed as cell growth inhibition incubated for 24 hrs by MTT assay; type: functional, cell-based; details: Col2, 24 h
# A549 = assay: Cytotoxicity against human A549 cells assessed as cell growth inhibition incubated for 24 hrs by MTT assay; type: functional, cell-based; details: A549, 24 h
# KB = assay: Cytotoxicity against human KB cells assessed as cell growth inhibition incubated for 24 hrs by MTT assay; type: functional, cell-based
# T-24 = assay: Cytotoxicity against human T24 cells assessed as cell viability; type: functional
# NUGC-3 = assay: Cytotoxicity against human NUGC-3 cells assessed as cell growth inhibition incubated for 30 mins by MTT assay; type: functional, cell-based; details: NUGC-3, 0.5 h
# ACHN [13] = assay: Cytotoxicity against human ACHN cells assessed as cell viability; type: functional
smiles,measurement,setting,value
CCCCCCCCCCCCCCCCCCCCCCCCCCCC(=O)OC[C@H](CC[C@@H]1O[C@H](CO)[C@@H](O)[C@H](O)[C@H]1O)OC(=O)CCCCCCCCCCCCCCCCCCCCCCCCCCC,IC50,HeLa [1],> 100 µg/mL
CCOC(=O)CCCCCCC/C=C/CCCCCC[C@H](C)O[C@@H]1O[C@H](COC(C)=O)[C@@H](O)[C@H](O)[C@H]1O[C@@H]1O[C@H](COC(C)=O)[C@@H](O)[C@H](O)[C@H]1O,inhibition at 25 µg/mL,Jurkat [2],90%
CCCCCCCCCC(=O)OCC(COC(=O)CCCCCCCCC)O[C@@H]1O[C@H](C(=O)O)[C@@H](O)[C@H](O)[C@H]1O,pIC50,IGROV-1 [3],3.81
same,pIC50,[4],4.51
same,pIC50,IGROV-1 [5],5.03
CCCCCCCCCCCC(=O)O[C@@H]1[C@@H](O)[C@@H](OC(=O)/C=C/c2ccccc2)[C@H](O[C@@H]2[C@@H](O[C@@H]3O[C@@H](C)[C@H](O)[C@@H](O)[C@H]3O)[C@@H](OC(=O)C(C)C)[C@H](O[C@@H]3[C@@H](O)[C@H]4OC(=O)CCCCCCCCC[C@@H](CCCCC)O[C@@H]5O[C@H](C)[C@@H](O)[C@H](O)[C@H]5O[C@@H]4O[C@H]3C)O[C@H]2C)O[C@H]1C,EC50,HEp-2,2 µg/mL
CC/C=C\C/C=C\C/C=C\CCCCCCCC(=O)OCC(CO[C@H]1O[C@H](CN)[C@@H](O)[C@H](O)[C@H]1O)OC(=O)CCCCCCC/C=C\C/C=C\C/C=C\CC (some centres not stated),IC50,HeLa [6],70.3 µg/mL
same,IC50,B16,70.3 µg/mL
same,IC50,SMMC-7721,70.3 µg/mL
CC/C=C\C/C=C\C/C=C\CCCCCCCC(=O)OCC(CO[C@H]1O[C@H](CNC(=O)CCc2ccc(O)cc2)[C@@H](O)[C@H](O)[C@H]1O)OC(=O)CCCCCCC/C=C\C/C=C\C/C=C\CC (some centres not stated),IC50,HeLa [6],70.3 µg/mL
same,IC50,B16,70.3 µg/mL
same,IC50,SMMC-7721,70.3 µg/mL
C/C=C(\C)C(=O)O[C@@H]1[C@@H](O)[C@@H]2O[C@H]3[C@H](O[C@@H](CCCCC)CCCCCCCCCC(=O)OC[C@@H](O2)[C@H]1OC(=O)/C=C/c1ccccc1)O[C@H](C)[C@H](OC(C)=O)[C@@H]3O,pIC50,MDA-MB-231 [7],7.79
same,pIC50,HeLa [8],7.83
same,pIC50,MCF7,7.48
same,pIC50,MCF-10A,7.51
same,pIC50,Jurkat [9],8.01
same,pIC50,U-937,7.95
CCCCCCCC(=O)O[C@H]1[C@H](OC[C@@H](O)[C@@H](O)[C@H](O)CO)O[C@H](COC(=O)CCCCC)[C@@H](OC(=O)CCCCC)[C@@H]1OC(=O)CCCCC,pIC50,[10],5.05
same,pIC50,MKN-45,5.12
same,pIC50,ACHN [11],5.17
CO[C@@H]1/C=C(\C)C[C@H](/C=C/C#C[C@H]2C[C@@H]2Cl)OC(=O)[C@@H](C)[C@]2(O)C[C@H](O[C@@H]3O[C@@H](C)[C@H](O[C@@H]4O[C@@H](C)[C@H](O)[C@@](C)(O)[C@H]4O)[C@@](C)(O)[C@H]3OC)[C@@H](C)[C@@H](O2)[C@@H]1C,pIC50,HCT-116,5.70
same,IC50,Lung NSCLC-N6 cell-line,30 µg/mL
CCCCCCCCCCCCCC(=O)OCC(O)C[C@@H]1O[C@H](COC(C)=O)[C@H](OC(C)=O)[C@H](OC(C)=O)[C@H]1OC(C)=O (some centres not stated),IC50,HeLa [1],57 µg/mL
CCCCCCCCO[C@@H]1O[C@@H](C)[C@H](OC(=O)CCCCC)[C@@H](O[C@@H]2O[C@@H](C)[C@H](OC(C)=O)[C@@H](O[C@@H]3O[C@@H](C)[C@H](OC(C)=O)[C@@H](O[C@@H]4O[C@@H](C)[C@H](O)[C@@H](O)[C@H]4OC(C)=O)[C@H]3OC(C)=O)[C@H]2OC(C)=O)[C@H]1O,pIC50,K562,6.15
same,pIC50,MDA-MB-231 [12],6.15
same,pIC50,Col2,6.15
same,pIC50,A549,6.15
same,pIC50,KB,6.15
COc1cccc2c1C(=O)c1c(O)c3c(c(O)c1C2=O)C[C@@](O)(C(=O)CO)C[C@@H]3O[C@H]1C[C@H](N)[C@H](O)[C@H](C)O1 [DOXORUBICIN],Activity,T-24,79%
CCCCCCCCCCCCCCCCCC(=O)OCC(O)CO (configuration not stated) [GLYCERYL MONOSTEARATE],pIC50,NUGC-3,4.00
CC(=O)O[C@H]1C(=O)[C@@]2(C)[C@H]([C@H](OC(=O)c3ccccc3)[C@]3(O)C[C@H](OC(=O)[C@H](O)[C@@H](NC(=O)c4ccccc4)c4ccccc4)C(C)=C1C3(C)C)[C@]1(OC(C)=O)CO[C@@H]1C[C@@H]2O [PACLITAXEL],Activity,ACHN [13],65.8%
